Laboratory results: ChEMBL document CHEMBL3102727, “Conformationally constrained ortho-anilino diaryl ureas: discovery of 1-(2-(1'-neopentylspiro[indoline-3,4'-piperidine]-1-yl)phenyl)-3-(4-(trifluoromethoxy)phenyl)urea, a potent, selective, and bioavailable P2Y1 antagonist” (J Med Chem, 2013)
≈ marks a conversion by molar mass, not a printed value. Calls of active or inactive are those of the source. The calls are words filed in the database; no cut-off is given here.

What was measured:
P2Y purinoceptor 1 [1] = biological target: T1, P2Y purinoceptor 1 (Homo sapiens, UniProt P47900); experiment: Displacement of [33P]-2MeS-ADP from human P2Y1 receptor expressed in HEK293 cells after 1 hr by scintillation counting analysis; type: cell-based
[2] = Half life in rat at 0.5 mg/kg, iv administered as bolus dose and po; type: ADME, organism-based; design: dose 0.5 mg/kg, route oral; settings: in vivo
P2Y purinoceptor 2 = P2Y purinoceptor 2 (Homo sapiens, UniProt P41231); experiment: Antagonist activity at P2Y2 receptor in human HeLa cells assessed as intracellular calcium mobilization after 10 mins by Fluo-4 AM staining-based FLIPR assay; type: functional, cell-based
[3] = biological target: Opioid receptors; mu/kappa/delta (Homo sapiens, UniProt P41145+P41143+P35372); experiment: Inhibition of opioid receptor (unknown origin)
Rattus norvegicus [4] = experiment: Antithrombotic activity in FeCl2-induced Sprague-Dawley rat carotid artery thrombosis model assessed as integrated blood flow at 10 mg/kg, po after 60 mins relative to vehicle-treated control; type: functional
[5] = Oral bioavailability in dog at 0.2 mg/kg; type: ADME, organism-based, Canis lupus familiaris; settings: in vivo
[6] = Partition coefficient, log P of the compound at pH 7 by reversed-phase HPLC method; type: physicochemical; settings: octanol/water
Rattus norvegicus [7] = experiment: Induction of mesenteric bleeding time in Sprague-Dawley rat at 0.2 mg/kg and 0.75 mg/kg/hr, iv measured over 10 mins relative to vehicle-treated control; type: organism-based; settings: in vivo
P2Y purinoceptor 12 = P2Y purinoceptor 12 (Homo sapiens, UniProt Q9H244); experiment: Displacement of [33P]-2MeS-ADP from P2Y12 receptor (unknown origin) transfected in HEK293 cells after 1 hr by scintillation counting analysis; type: cell-based
Rattus norvegicus [8] = experiment: Antithrombotic activity in FeCl2-induced Sprague-Dawley rat carotid artery thrombosis model assessed as reduction of thrombus weight at 0.2 mg/kg and 0.75 mg/kg/hr, iv after 60 mins relative to vehicle-treated control; type: functional; design: scale not given: the % may be the effect or the level left
Rattus norvegicus [9] = experiment: Ex vivo antiplatelet activity in Sprague-Dawley rat assessed as inhibition of […] uM ADP-induced platelet aggregation at 0.6 mg/kg and 2.25 mg/kg/hr, iv after 60 mins relative to vehicle-treated control; type: functional
Rattus norvegicus [10] = experiment: Ex vivo antiplatelet activity in Sprague-Dawley rat assessed as inhibition of […] uM ADP-induced platelet aggregation at 10 mg/kg, po after 60 mins relative to vehicle-treated control; type: functional; settings: 1 h
[11] = Total AUC in rat at 0.5 mg/kg, po; type: ADME, organism-based; design: time AUCmax, dose 0.5 mg/kg, route oral; settings: in vivo
Rattus norvegicus [12] = experiment: Antithrombotic activity in FeCl2-induced Sprague-Dawley rat vena cava thrombosis model assessed as reduction of thrombus weight at 0.2 mg/kg and 0.75 mg/kg/hr, iv after 60 mins relative to vehicle-treated control; type: functional; design: scale not given: the % may be the effect or the level left
Rattus norvegicus [13] = experiment: Antithrombotic activity in FeCl2-induced Sprague-Dawley rat carotid artery thrombosis model assessed as integrated blood flow at 0.6 mg/kg and 2.25 mg/kg/hr, iv after 60 mins relative to vehicle-treated control; type: functional
L-type calcium channel = L-type calcium channel (Rattus norvegicus, UniProt P22002+P27732+Q02485); experiment: Inhibition of rat L-type calcium channel at 10 uM relative to control
Rattus norvegicus [14] = experiment: Antithrombotic activity in po dosed FeCl2-induced Sprague-Dawley rat carotid artery thrombosis model assessed as inhibition of arterial thrombus formation after 60 mins; type: functional, organism-based
[15] = Fraction unbound in rat; type: ADME, organism-based; settings: in vivo
Rattus norvegicus [16] = experiment: Antithrombotic activity in FeCl2-induced Sprague-Dawley rat carotid artery thrombosis model assessed as reduction of thrombus weight at 0.6 mg/kg and 2.25 mg/kg/hr, iv after 60 mins relative to vehicle-treated control; type: functional; design: scale not given: the % may be the effect or the level left
[17] = Clearance in rat at 0.5 mg/kg, iv administered as bolus dose; type: ADME, organism-based; design: dose 0.5 mg/kg, route intravenous; settings: in vivo
[18] = Oral bioavailability in rat at 0.5 mg/kg; type: ADME, organism-based; settings: in vivo
Rattus norvegicus [19] = experiment: Antithrombotic activity in FeCl2-induced Sprague-Dawley rat carotid artery thrombosis model assessed as prevention of vascular occlusion at 10 mg/kg, po after 60 mins; type: functional, organism-based; design: dose 10 mg/kg
P2Y purinoceptor 1 [20] = biological target: T1, P2Y purinoceptor 1; experiment: Antagonist activity at P2Y1 receptor in washed human platelets assessed as 1 uM 2-methylthio-ADP-induced calcium flux by FLIPR assay; type: functional
[21] = Fraction unbound in mouse; type: ADME, organism-based; settings: in vivo
[22] = Fraction unbound in human; type: ADME, organism-based; settings: in vivo
Rattus norvegicus [23] = species: Rattus norvegicus; experiment: Inhibition of rat sodium channel site-2 at 10 uM relative to control
[24] = Volume of distribution at steady state in rat at 0.5 mg/kg, iv administered as bolus dose; type: ADME, organism-based; design: dose 0.5 mg/kg, route intravenous; settings: in vivo, read-out: Vdss
Rattus norvegicus [25] = experiment: Ex vivo antiplatelet activity in Sprague-Dawley rat assessed as inhibition of […] uM ADP-induced platelet aggregation at 0.2 mg/kg and 0.75 mg/kg/hr, iv after 60 mins relative to vehicle-treated control; type: functional
[26] = Metabolic stability in human liver microsomes assessed as compound remaining after 10 mins; type: ADME; settings: read-out: Stability
Rattus norvegicus [27] = experiment: Antithrombotic activity in FeCl2-induced Sprague-Dawley rat carotid artery thrombosis model assessed as reduction of thrombus weight at 3 mg/kg, po after 60 mins relative to vehicle-treated control; type: functional; design: scale not given: the % may be the effect or the level left
Rattus norvegicus [28] = experiment: Antithrombotic activity in iv dosed FeCl2-induced Sprague-Dawley rat carotid artery thrombosis model assessed as inhibition of arterial thrombus formation after 60 mins; type: functional, organism-based
[29] = Fraction unbound in dog; type: ADME, organism-based, Canis lupus familiaris; settings: in vivo
[30] = Volume of distribution at steady state in dog at 0.2 mg/kg, po and 0.1 mg/kg, iv; type: ADME, organism-based, Canis lupus familiaris; settings: in vivo, read-out: Vdss
[31] = Aqueous solubility of the crystalline form of compound in phosphate buffer at pH 6.5; type: physicochemical
Rattus norvegicus [32] = experiment: Ex vivo antiplatelet activity in Sprague-Dawley rat assessed as inhibition of […] uM ADP-induced platelet aggregation at 3 mg/kg, po after 60 mins relative to vehicle-treated control; type: functional; settings: 1 h
Rattus norvegicus [33] = experiment: Antithrombotic activity in FeCl2-induced Sprague-Dawley rat vena cava thrombosis model assessed as reduction of thrombus weight at 0.6 mg/kg and 2.25 mg/kg/hr, iv after 60 mins relative to vehicle-treated control; type: functional; design: scale not given: the % may be the effect or the level left
Rattus norvegicus [34] = experiment: Antithrombotic activity in FeCl2-induced Sprague-Dawley rat carotid artery thrombosis model assessed as prevention of vascular occlusion at 0.6 mg/kg and 2.25 mg/kg/hr, iv after 60 mins; type: functional, organism-based
[35] = Fraction unbound in rabbit; type: ADME, organism-based, Oryctolagus cuniculus; settings: in vivo
[36] = Clearance in dog at 0.2 mg/kg, po and 0.1 mg/kg, iv; type: ADME, organism-based, Canis lupus familiaris; settings: in vivo
Rattus norvegicus [37] = experiment: Antithrombotic activity in iv dosed FeCl2-induced Sprague-Dawley rat vena cava thrombosis model assessed as reduction of thrombus weight after 60 mins; type: functional, organism-based
HEK293 = experiment: Selectivity ratio of IC50 for P2X1 receptor in HEK293 cells to IC50 for P2Y1 receptor in washed human platelets; type: cell-based
Rattus norvegicus [38] = experiment: Induction of mesenteric bleeding time in iv dosed Sprague-Dawley rat measured over 10 mins; type: organism-based; settings: in vivo
Rattus norvegicus [39] = experiment: Antithrombotic activity in FeCl2-induced Sprague-Dawley rat carotid artery thrombosis model assessed as reduction of thrombus weight at 10 mg/kg, po after 60 mins relative to vehicle-treated control; type: functional; design: scale not given: the % may be the effect or the level left
[40] = Half life in dog at 0.2 mg/kg, po; type: ADME, organism-based, Canis lupus familiaris; design: dose 0.2 mg/kg, route oral; settings: in vivo
Rattus norvegicus [41] = experiment: Induction of mesenteric bleeding time in Sprague-Dawley rat at 0.6 mg/kg and 2.25 mg/kg/hr, iv measured over 10 mins relative to vehicle-treated control; type: organism-based; settings: in vivo
P2X purinoceptor 1 = biological target: T2, P2X purinoceptor 1 (Homo sapiens, UniProt P51575); experiment: Antagonist activity at P2X1 receptor in HEK293 cells assessed as alpha, beta-methylene ATP-induced calcium flux by FLIPR assay; type: cell-based
T2 sequence (P51575 whole entry): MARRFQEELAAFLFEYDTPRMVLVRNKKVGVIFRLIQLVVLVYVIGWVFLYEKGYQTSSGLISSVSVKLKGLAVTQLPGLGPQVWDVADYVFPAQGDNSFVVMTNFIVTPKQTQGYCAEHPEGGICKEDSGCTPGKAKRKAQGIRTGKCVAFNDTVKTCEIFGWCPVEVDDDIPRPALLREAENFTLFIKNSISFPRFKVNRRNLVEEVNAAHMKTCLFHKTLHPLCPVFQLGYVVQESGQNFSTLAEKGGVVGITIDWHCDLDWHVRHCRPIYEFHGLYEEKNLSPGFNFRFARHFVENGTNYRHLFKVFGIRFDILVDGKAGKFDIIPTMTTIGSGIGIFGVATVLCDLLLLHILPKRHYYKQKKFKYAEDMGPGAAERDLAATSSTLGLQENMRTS

Rattus norvegicus [42] = experiment: Antithrombotic activity in po dosed FeCl2-induced Sprague-Dawley rat carotid artery thrombosis model assessed as increase in integrated blood flow measured over 60 mins; type: functional, organism-based
Rattus norvegicus [43] = experiment: Antithrombotic activity in iv dosed FeCl2-induced Sprague-Dawley rat carotid artery thrombosis model assessed as increase in integrated blood flow measured over 60 mins; type: functional, organism-based
[44] = Metabolic stability in rat liver microsomes assessed as compound remaining after 10 mins; type: ADME; settings: read-out: Stability

T1 sequence (P47900 whole entry): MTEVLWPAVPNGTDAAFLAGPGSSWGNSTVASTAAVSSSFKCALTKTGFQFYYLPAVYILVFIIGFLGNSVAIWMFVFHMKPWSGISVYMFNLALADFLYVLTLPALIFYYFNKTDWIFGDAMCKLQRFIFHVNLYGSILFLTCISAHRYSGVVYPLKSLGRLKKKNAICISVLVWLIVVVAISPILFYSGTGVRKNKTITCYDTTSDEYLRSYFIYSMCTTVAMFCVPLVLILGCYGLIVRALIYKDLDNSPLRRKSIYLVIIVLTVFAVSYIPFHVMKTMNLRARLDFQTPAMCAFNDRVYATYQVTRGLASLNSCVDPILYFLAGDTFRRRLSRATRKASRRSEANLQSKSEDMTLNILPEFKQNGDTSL
P2Y purinoceptor 2, sequence (P41231 whole entry): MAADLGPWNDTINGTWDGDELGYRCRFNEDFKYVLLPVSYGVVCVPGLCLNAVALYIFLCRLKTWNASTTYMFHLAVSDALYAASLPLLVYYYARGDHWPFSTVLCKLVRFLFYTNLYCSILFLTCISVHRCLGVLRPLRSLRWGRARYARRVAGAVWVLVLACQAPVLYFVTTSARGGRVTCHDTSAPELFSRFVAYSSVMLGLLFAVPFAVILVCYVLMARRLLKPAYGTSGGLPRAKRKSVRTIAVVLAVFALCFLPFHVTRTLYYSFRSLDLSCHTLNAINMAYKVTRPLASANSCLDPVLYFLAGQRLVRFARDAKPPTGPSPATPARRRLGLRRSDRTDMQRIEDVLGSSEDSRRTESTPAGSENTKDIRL
P2Y purinoceptor 12, sequence (Q9H244 whole entry): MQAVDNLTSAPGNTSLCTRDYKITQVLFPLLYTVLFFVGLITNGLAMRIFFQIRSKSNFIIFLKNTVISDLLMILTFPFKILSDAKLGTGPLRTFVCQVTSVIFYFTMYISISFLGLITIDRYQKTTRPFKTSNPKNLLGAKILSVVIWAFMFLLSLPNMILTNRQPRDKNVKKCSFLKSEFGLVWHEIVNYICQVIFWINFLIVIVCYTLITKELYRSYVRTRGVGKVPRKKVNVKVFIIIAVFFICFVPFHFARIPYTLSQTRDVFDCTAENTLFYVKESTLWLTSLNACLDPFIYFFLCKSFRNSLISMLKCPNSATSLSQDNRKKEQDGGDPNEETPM

CC(C)(C)CN1CCC2(CC1)CN(c1ccccc1NC(=O)Nc1ccc(OC(F)(F)F)cc1)c1ccccc12
Ki (P2Y purinoceptor 1 [1]): 4.3 nM
half-life [2]: 7.5 h
IC50 (P2Y purinoceptor 2): > 10000 nM
IC50 [3]: 2700 nM
Activity (Rattus norvegicus [4]): >95%
bioavailability [5]: 55%
logP [6]: > 6.2
fold change (FC) (Rattus norvegicus [7]): 2.7
IC50 (P2Y purinoceptor 12): > 20000 nM
Activity (Rattus norvegicus [8]): -41%
inhibition (INH) (Rattus norvegicus [9]): -85%
inhibition in vivo at 10 mg/kg (Rattus norvegicus [10]): -64%
AUC [11]: 0.587 µM·h
Activity (Rattus norvegicus [12]): -26%
Activity (Rattus norvegicus [13]): >95%
inhibition at 10 µM (L-type calcium channel): 78%
inhibition (Rattus norvegicus [14]): Dose-dependent effect
Fu [15]: < 0.1%
Activity (Rattus norvegicus [16]): 66%
clearance [17]: 9.1 mL/min/kg
bioavailability [18]: 32%
Activity (Rattus norvegicus [19]): Active
IC50 (P2Y purinoceptor 1 [20]): 2.5 nM
Fu [21]: 0.2%
Fu [22]: < 0.1%
inhibition (Rattus norvegicus [23]): 88%
Vd [24]: 2.8 L/kg
inhibition (INH) (Rattus norvegicus [25]): -30%
remaining at 10 min [26]: 89%
Activity (Rattus norvegicus [27]): -45%
inhibition (Rattus norvegicus [28]): Dose-dependent effect
Fu [29]: 0.2%
Vd [30]: 2.8 L/kg
solubility [31]: 4 µg/mL (≈ 7.24 µM)
inhibition in vivo at 3 mg/kg (Rattus norvegicus [32]): -48%
Activity (Rattus norvegicus [33]): -54%
Activity (Rattus norvegicus [34]): Active
Fu [35]: 0.1%
clearance [36]: 5.3 mL/min/kg
Activity (Rattus norvegicus [37]): Dose-dependent effect
Ratio IC50 (HEK293): > 600
Activity (Rattus norvegicus [38]): Dose-dependent effect
Activity (Rattus norvegicus [39]): 64%
half-life [40]: 9.7 h
fold change (FC) (Rattus norvegicus [41]): 2.3
IC50 (P2X purinoceptor 1): 1600 nM
Activity (Rattus norvegicus [42]): Dose-dependent effect
Activity (Rattus norvegicus [43]): Dose-dependent effect
remaining at 10 min [44]: 87%
